The values that follow come from ChEMBL document CHEMBL2074413, “Effect of cisplatin-induced acute renal failure on bioavailability and intestinal secretion of quinolone antibacterial drugs in rats” (Pharm Res, 2004).

Holding throughout (type): functional, cell-based
The target in data set [1] is T1, ATP-dependent translocase ABCB1 (Homo sapiens, UniProt P08183). Briefly: TP_TRANSPORTER: transepithelial transport (basal to apical) of Ciprofloxacin at 2uM in LLC-GA5-COL150 cells. Conditions: pig, llc-ga5-col150, 2 µM.
T1 sequence (P08183 whole entry): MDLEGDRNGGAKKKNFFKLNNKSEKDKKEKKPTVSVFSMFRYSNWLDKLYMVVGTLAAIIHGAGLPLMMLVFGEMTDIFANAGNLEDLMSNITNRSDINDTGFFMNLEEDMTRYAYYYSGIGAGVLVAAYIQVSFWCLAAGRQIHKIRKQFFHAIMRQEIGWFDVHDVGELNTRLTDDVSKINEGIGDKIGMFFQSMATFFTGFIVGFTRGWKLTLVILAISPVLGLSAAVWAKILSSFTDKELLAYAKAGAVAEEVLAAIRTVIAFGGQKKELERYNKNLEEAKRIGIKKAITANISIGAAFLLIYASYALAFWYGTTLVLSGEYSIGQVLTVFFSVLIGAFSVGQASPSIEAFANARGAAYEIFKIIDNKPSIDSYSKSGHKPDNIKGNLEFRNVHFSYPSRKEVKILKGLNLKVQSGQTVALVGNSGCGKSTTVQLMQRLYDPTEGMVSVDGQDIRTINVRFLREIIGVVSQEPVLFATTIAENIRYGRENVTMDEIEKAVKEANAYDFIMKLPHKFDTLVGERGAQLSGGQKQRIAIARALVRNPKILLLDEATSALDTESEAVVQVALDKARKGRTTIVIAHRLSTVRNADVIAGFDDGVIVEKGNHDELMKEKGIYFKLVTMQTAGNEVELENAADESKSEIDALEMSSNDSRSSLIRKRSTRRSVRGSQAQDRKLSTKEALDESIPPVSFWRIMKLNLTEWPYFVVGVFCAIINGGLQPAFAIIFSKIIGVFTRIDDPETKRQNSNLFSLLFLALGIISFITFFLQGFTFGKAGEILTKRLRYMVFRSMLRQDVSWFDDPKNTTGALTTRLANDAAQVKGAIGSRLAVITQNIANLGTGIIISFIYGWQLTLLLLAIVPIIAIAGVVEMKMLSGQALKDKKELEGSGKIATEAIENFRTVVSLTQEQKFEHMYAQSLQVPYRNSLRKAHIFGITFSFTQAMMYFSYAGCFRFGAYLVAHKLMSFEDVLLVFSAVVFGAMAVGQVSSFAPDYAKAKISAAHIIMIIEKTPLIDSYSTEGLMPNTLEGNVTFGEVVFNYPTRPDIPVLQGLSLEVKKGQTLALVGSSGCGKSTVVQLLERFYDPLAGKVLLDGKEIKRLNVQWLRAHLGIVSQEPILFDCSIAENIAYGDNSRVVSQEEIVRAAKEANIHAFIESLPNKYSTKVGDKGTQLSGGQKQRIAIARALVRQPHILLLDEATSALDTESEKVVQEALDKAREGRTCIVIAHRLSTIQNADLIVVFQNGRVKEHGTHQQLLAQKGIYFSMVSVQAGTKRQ
The target in data set [2] is T1, ATP-dependent translocase ABCB1. The data set is described as follows: TP_TRANSPORTER: transepithelial transport (basal to apical) of Digoxin at a concentration of 58.8nM in LLC-GA5-COL150 cells. The following applies: pig.
Data set [3] has the same target. The data set is described as follows: TP_TRANSPORTER: transepithelial transport (basal to apical) of Grepafloxacin at a concentration of 5uM in LLC-GA5-COL150 cells. Conditions: pig, llc-ga5-col150, 5 µM.
Data set [4] shares this target. The data set is described as follows: TP_TRANSPORTER: transepithelial transport (basal to apical) of Levofloxacin at a concentration of 5uM in LLC-GA5-COL150 cells. Conditions: pig, llc-ga5-col150, 5 µM.

The structures appear in SMILES notation.

Regarding `O=C(O)c1cn(C2CC2)c2cc(N3CCNCC3)c(F)cc2c1=O` [CIPROFLOXACIN], the Activity entry in data set [1] is “is not a substrate [-]”. Turning to `C[C@H]1O[C@@H](O[C@H]2[C@@H](O)C[C@H](O[C@H]3[C@@H](O)C[C@H](O[C@H]4CC[C@@]5(C)[C@H](CC[C@@H]6[C@@H]5C[C@@H](O)[C@]5(C)[C@@H](C7=CC(=O)OC7)CC[C@]65O)C4)O[C@@H]3C)O[C@@H]2C)C[C@H](O)[C@@H]1O` [DIGOXIN], the Activity result in data set [2] is “substrate [+]”.

Take `Cc1c(F)c(N2CCNC(C)C2)cc2c1c(=O)c(C(=O)O)cn2C1CC1` (centres undefined) [GREPAFLOXACIN]: in data set [3], the Activity result is “substrate [+]”. In the case of `C[C@H]1COc2c(N3CCN(C)CC3)c(F)cc3c(=O)c(C(=O)O)cn1c23.C[C@H]1COc2c(N3CCN(C)CC3)c(F)cc3c(=O)c(C(=O)O)cn1c23.O` [LEVOFLOXACIN], in data set [4], the Activity result is “substrate [+]”.
